Data published in US4293553A, “1-Phthalazone derivatives, and use thereof” (Ishikawa; Masayuki, priority 1978, dated 1981).

Assay: Acute toxicity, LD50 in mice (Litchfield and Wilcoxon)
Conditions: mouse, in vivo, po
Procedure: LD50 values were determined in mice and calculated according to the method of Litchfield and Wilcoxon described in J. Pharmacol. Exp. Ther., 96, 99 (1949).

Compound | LD50 [mg/kg]
CCOC(=O)c1c(C)cc2cnn(-c3ccccc3F)c(=O)c2c1C [7-ethoxycarbonyl-6,8-dimethyl-2-(o-fluorophenyl)-1-phthalazone] | 450
CCOC(=O)c1c(C)cc2cnn(-c3ccccc3Cl)c(=O)c2c1C [7-ethoxycarbonyl-6,8-dimethyl-2-(o-chlorophenyl)-1-phthalazone] | 386
CCOC(=O)c1c(C)cc2c(CO)nn(-c3ccccc3)c(=O)c2c1C [7-ethoxycarbonyl-6,8-dimethyl-4-hydroxymethyl-2-phenyl-1-phthalazone] | 540
CCOC(=O)c1c(C)cc2cnn(-c3ccccc3)c(=O)c2c1C [7-ethoxycarbonyl-6,8-dimethyl-2-phenyl-1-phthalazone] | 480
CCOC(=O)c1c(C)cc2c(CO)nn(-c3ccccc3Cl)c(=O)c2c1C [7-ethoxycarbonyl-6,8-dimethyl-2-(o-chlorophenyl)-4-hydroxymethyl-1-phthalazone] | 564
